Laboratory results: PubChem BioAssay (NCI)
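Interpolation was linear, between the two tested concentrations surrounding the appropriate level; five concentrations were tested over 48 hours in 96-well plates. TGI: total growth inhibition.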 *1 amine or outer side, *2 acyl side, *3 side chain or, on linkers, in order; H or OH if unused. Where a SMILES comes first, the peptide text is derived from it. [ ]: non-standard residue; d: D form. The star is where a group is joined. X31 = CC(=O)N(C)SCC(N[*:1])C(=O)[*:2]; Cbz = O=C(OCc1ccccc1)*; Bn = c1ccc(C*)cc1; For = O=C*

Assays:
Test in all cases: NCI anticancer screen, dose series, 48 h
[1] = system: MDA-MB-435
[2] = system: HT29 colon
[3] = system: 786-0 renal
[4] = system: A549 NSCLC
[5] = system: OVCAR-3 ovarian
[6] = system: MDA-N
[7] = system: U251 CNS
[8] = system: OVCAR-8 ovarian
[9] = system: UO-31 renal
[10] = system: IGROV1 ovarian
[11] = system: RXF 393 renal
[12] = system: SF-295 CNS
[13] = system: HL-60(TB) leukemia
[14] = system: EKVX NSCLC
[15] = system: MCF7 breast
[16] = system: CAKI-1 renal
[17] = system: SK-MEL-2 melanoma

| SMILES | TGI [1] | TGI [2] | TGI [3] | TGI [4] | TGI [5] | TGI [6] | TGI [7] | TGI [8] | TGI [9] | TGI [10] | TGI [11] | TGI [12] | TGI [13] | TGI [14] | TGI [15] | TGI [16] | TGI [17] |
| --- | --- | --- | --- | --- | --- | --- | --- | --- | --- | --- | --- | --- | --- | --- | --- | --- | --- |
| CN(C)Nc1cc(=O)[nH]c(=O)[nH]1 | > 100 µM | > 100 µM | > 100 µM | > 100 µM | > 100 µM | > 100 µM | > 100 µM | > 100 µM | > 100 µM | > 100 µM | > 100 µM | > 100 µM | > 100 µM | > 100 µM | > 100 µM | – | – |
| CC(=O)C(=C(c1ccccc1)c1ccccc1)c1ccccc1 | > 100 µM | > 100 µM | > 100 µM | > 100 µM | > 100 µM | > 100 µM | > 100 µM | > 100 µM | > 100 µM | – | > 100 µM | > 100 µM | > 100 µM | 80.2 µM | > 100 µM | – | – |
| C=C(C)C1=CCC[C@]2(C1)N=C(OC)[C@@H](C(C)C)N=C2OC | > 100 µM | > 100 µM | > 100 µM | > 100 µM | > 100 µM | > 100 µM | > 100 µM | > 100 µM | > 100 µM | > 100 µM | – | > 100 µM | 87.9 µM | > 100 µM | > 100 µM | > 100 µM | > 100 µM |
| COC1(OC)c2no[n+]([O-])c2CCC1O (centres undefined) | > 100 µM | > 100 µM | > 100 µM | > 100 µM | > 100 µM | > 100 µM | – | > 100 µM | > 100 µM | > 100 µM | > 100 µM | > 100 µM | – | > 100 µM | > 100 µM | > 100 µM | > 100 µM |
| CCSc1[nH]c(NC(=S)NC(=O)c2ccccc2Cl)c(C(N)=O)c1C(N)=O | > 10 µM | > 10 µM | > 10 µM | > 10 µM | – | > 10 µM | – | > 10 µM | – | > 10 µM | > 10 µM | > 10 µM | > 10 µM | > 10 µM | > 10 µM | > 10 µM | – |
| O=C(O)c1nc2cc(C(F)(F)F)ccc2nc1Nc1ccc(F)cc1 | > 100 µM | > 100 µM | 66 µM | > 100 µM | 49.8 µM | 91 µM | 59.5 µM | 81.7 µM | 35.8 µM | 55.9 µM | 36 µM | 58.4 µM | – | 89.6 µM | 72.9 µM | 74.7 µM | 26.5 µM |
| CC(=O)N(C)SCC(NC(=O)C(Cc1ccccc1)NC(=O)OCc1ccccc1)C(=O)NC(Cc1ccccc1)C(=O)NC(Cc1cn(C=O)c2ccccc12)C(=O)NC(CCCCNC(=O)OCc1ccccc1)C(=O)NC(C(=O)NC(CSN(C)C(C)=O)C(=O)NC(C(N)=O)C(C)OCc1ccccc1)C(C)OCc1ccccc1 (centres undefined) (Cbz-F[X31]FW(For)K(Cbz)T(Bn)[X31]T(Bn)-NH2; configuration not given here) | > 100 µM | > 100 µM | > 100 µM | > 100 µM | > 100 µM | > 100 µM | > 100 µM | > 100 µM | > 100 µM | > 100 µM | 41.9 µM | > 100 µM | > 100 µM | > 100 µM | > 100 µM | – | 28.7 µM |
| Cc1csc2[n+]1C(=O)/C(=C\c1ccc([N+](=O)[O-])cc1)S2 | 59.9 µM | 60.2 µM | 71.8 µM | > 100 µM | 33.1 µM | 75.2 µM | 45.7 µM | > 100 µM | 39.3 µM | – | 82.6 µM | 65.1 µM | 64.4 µM | – | > 100 µM | 56.4 µM | 63.3 µM |
| O=C1/C(=C/c2cccc(Br)c2)CCc2ccccc21 | 25.4 µM | 27.1 µM | 29.8 µM | 34.6 µM | 28.6 µM | 24.5 µM | 28 µM | 36.1 µM | 26.7 µM | 24.7 µM | – | 28.5 µM | 28.3 µM | 32.7 µM | 14.9 µM | 30.3 µM | 25.8 µM |
| COC(=O)/C=C(/C)n1nc2ccccc2n1 | > 100 µM | > 100 µM | > 100 µM | > 100 µM | > 100 µM | > 100 µM | > 100 µM | > 100 µM | > 100 µM | > 100 µM | > 100 µM | > 100 µM | – | > 100 µM | > 100 µM | > 100 µM | > 100 µM |
| O=C1C(Cl)C2(CC(/C=C/c3ccccc3Cl)=NN2c2cccc(S(=O)(=O)O)c2)N1c1nc2ccccc2s1 (centres undefined) | 24.3 µM | > 100 µM | 62.3 µM | > 100 µM | – | > 100 µM | > 100 µM | > 100 µM | 16.3 µM | > 100 µM | > 100 µM | – | > 100 µM | > 100 µM | > 100 µM | 38.6 µM | > 100 µM |
| O=C1CCC2C(O)c3cc4c(cc3C(c3ccc5c(c3)OCO5)N12)OCO4 (centres undefined) | > 100 µM | > 100 µM | > 100 µM | > 100 µM | > 100 µM | > 100 µM | 60.9 µM | > 100 µM | > 100 µM | > 100 µM | – | > 100 µM | > 100 µM | > 100 µM | > 100 µM | > 100 µM | > 100 µM |
| COC(=O)C1(CCC(C)=O)CCCCCC1=O (centres undefined) | > 100 µM | > 100 µM | > 100 µM | > 100 µM | > 100 µM | > 100 µM | > 100 µM | – | > 100 µM | > 100 µM | > 100 µM | > 100 µM | – | > 100 µM | > 100 µM | > 100 µM | > 100 µM |
| Cc1cc2ccccc2n2c1nc1ccccc12 | > 100 µM | > 100 µM | > 100 µM | > 100 µM | > 100 µM | > 100 µM | > 100 µM | > 100 µM | > 100 µM | > 100 µM | > 100 µM | > 100 µM | > 100 µM | > 100 µM | > 100 µM | – | – |
| CC(C)OC(=O)c1ccc(NCc2cc(O)ccc2O)cc1Cl | 23.3 µM | > 93 µM | 10.8 µM | > 76.7 µM | > 42.2 µM | 22.6 µM | 24.6 µM | > 70.1 µM | 2.38 µM | 14.7 µM | 13.1 µM | 34.6 µM | – | 25.5 µM | > 45.2 µM | 3.02 µM | > 55 µM |
